Measured values taken from the supplement of paper PMC11061612.

Columns and labels:
Assay in all cases: combination Emax (second highest fraction inhibited in the dose matrix, 72 h); higher = more inhibition; extreme values may be limits of the assay
42-MG-BA (Glioblastoma) = test system: 42-MG-BA (Glioblastoma)
In short: (§1)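 After 24 hours at 37°C and 5% CO2 in 1536-well plates, cells in DMEM/F12 or RPMI plus 10% FBS received two-drug dose matrices for 72 hours. Viability came from CellTiter-Glo 2.0 luminescence and was scaled as inhibition, anchored at 0 by vehicle wells and at 1 by blank wells. Combination Emax is taken as the second-highest inhibition in the matrix, and Bliss excess as the observed combination effect less EA + EB − EA·EB, with EA and EB the single-agent effects.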

AGS (Gastric Carcinoma) = test system: AGS (Gastric Carcinoma)
In short: as §1

[1] = test system: CAL-148 (Breast Carcinoma)
In short: as §1

[2] = test system: CCRF-CEM (T-Lymphoblastic Leukemia)
In short: as §1

[3] = test system: COLO-205 (Colorectal Carcinoma)
In short: as §1

[4] = test system: DoTc2-4510 (Cervical Carcinoma)
In short: as §1

ES4 (Ewing's Sarcoma) = test system: ES4 (Ewing's Sarcoma)
In short: as §1

HOS (Osteosarcoma) = test system: HOS (Osteosarcoma)
In short: as §1

[5] = test system: HT-1376 (Bladder Carcinoma)
In short: as §1

[6] = test system: Hs-578-T (Breast Carcinoma)
In short: as §1

[7] = test system: HuP-T4 (Pancreatic Carcinoma)
In short: as §1

[8] = test system: KYSE-520 (Esophageal Squamous Cell Carcinoma)
In short: as §1

[9] = test system: LB831-BLC (Bladder Carcinoma)
In short: as §1

[10] = test system: LS-180 (Colorectal Carcinoma)
In short: as §1

[11] = test system: LU-135 (Small Cell Lung Carcinoma)
In short: as §1

NOS-1 (Osteosarcoma) = test system: NOS-1 (Osteosarcoma)
In short: as §1

[12] = test system: Ramos-2G6-4C10 (Burkitt's Lymphoma)
In short: as §1

[13] = test system: SNU-5 (Gastric Carcinoma)
In short: as §1

[14] = test system: TCCSUP (Bladder Carcinoma)
In short: as §1

[15] = test system: TE-15 (Esophageal Squamous Cell Carcinoma)
In short: as §1

| SMILES | combination Emax (42-MG-BA (Glioblastoma)) | combination Emax (AGS (Gastric Carcinoma)) | combination Emax [1] | combination Emax [2] | combination Emax [3] | combination Emax [4] | combination Emax (ES4 (Ewing's Sarcoma)) | combination Emax (HOS (Osteosarcoma)) | combination Emax [5] | combination Emax [6] | combination Emax [7] | combination Emax [8] | combination Emax [9] | combination Emax [10] | combination Emax [11] | combination Emax (NOS-1 (Osteosarcoma)) | combination Emax [12] | combination Emax [13] | combination Emax [14] | combination Emax [15] |
| --- | --- | --- | --- | --- | --- | --- | --- | --- | --- | --- | --- | --- | --- | --- | --- | --- | --- | --- | --- | --- |
| CC1(C)CCC(CN2CCN(c3ccc(C(=O)NS(=O)(=O)c4ccc(NCC5CCOCC5)c([N+](=O)[O-])c4)c(Oc4cnc5[nH]ccc5c4)c3)CC2)=C(c2ccc(Cl)cc2)C1 [Venetoclax] + C1CN(CCC1(C(=O)N[C@@H](CCO)C2=CC=C(C=C2)Cl)N)C3=NC=NC4=C3C=CN4 [Capivasertib] (first compound max 1 µM, 7x7, partner max 3 µM) | 0.518 | 0.316 | 0.966 | 0.957 | 0.237 | 0.245 | 0.155 | 0.281 | 0.11 | 0.812 | 0.0995 | 0.467 | 0.334 | 0.287 | 0.317 | 0.171 | 0.173 | 0.336 | 0.189 | 0.401 |
| CC1(C)CCC(CN2CCN(c3ccc(C(=O)NS(=O)(=O)c4ccc(NCC5CCOCC5)c([N+](=O)[O-])c4)c(Oc4cnc5[nH]ccc5c4)c3)CC2)=C(c2ccc(Cl)cc2)C1 [Venetoclax] + C=CCn1c(=O)c2cnc(Nc3ccc(N4CCN(C)CC4)cc3)nc2n1-c1cccc(C(C)(C)O)n1 [AZD1775] (first compound max 1 µM, partner max 1 µM) | 0.287 | 0.595 | 0.952 | 1 | 0.606 | 0.633 | 0.437 | 0.406 | 0.338 | 0.909 | 0.378 | 0.595 | 0.677 | 0.42 | 0.688 | 0.675 | 0.984 | 0.557 | 0.475 | 0.796 |
| CC1(C)CCC(CN2CCN(c3ccc(C(=O)NS(=O)(=O)c4ccc(NCC5CCOCC5)c([N+](=O)[O-])c4)c(Oc4cnc5[nH]ccc5c4)c3)CC2)=C(c2ccc(Cl)cc2)C1 [Venetoclax] + CCN(CCO)CCCOc1ccc2c(Nc3cc(CC(=O)Nc4cccc(F)c4)[nH]n3)ncnc2c1 [AZD2811] (first compound max 1 µM, 7x7, partner max 1 µM) | 0.534 | 0.346 | 0.933 | 1 | 0.713 | 0.235 | 0.164 | 0.214 | 0.183 | 0.802 | 0.263 | 0.304 | 0.188 | 0.244 | 0.899 | 0.255 | 0.269 | 0.151 | 0.311 | 0.441 |
| CC1(C)CCC(CN2CCN(c3ccc(C(=O)NS(=O)(=O)c4ccc(NCC5CCOCC5)c([N+](=O)[O-])c4)c(Oc4cnc5[nH]ccc5c4)c3)CC2)=C(c2ccc(Cl)cc2)C1 [Venetoclax] + CN(C)CCCOc1ccc(-c2ccc3ncc4c(c3c2)n(C2CCOCC2)c(=O)n4C)cn1 [AZD0156] (first compound max 1 µM, 7x7, partner max 1 µM) | 0.367 | 0.221 | 0.716 | 0.931 | 0.237 | 0.268 | 0.173 | 0.152 | 0.189 | 0.793 | 0.144 | 0.181 | 0.228 | 0.166 | 0.274 | 0.194 | 0.627 | 0.222 | 0.189 | 0.451 |
| CC1(C)CCC(CN2CCN(c3ccc(C(=O)NS(=O)(=O)c4ccc(NCC5CCOCC5)c([N+](=O)[O-])c4)c(Oc4cnc5[nH]ccc5c4)c3)CC2)=C(c2ccc(Cl)cc2)C1 [Venetoclax] + COc1cc(Nc2ncc3c(n2)-c2ccc(Cl)cc2C(c2c(F)cccc2OC)=NC3)ccc1C(=O)O [Alisertib] (first compound max 1 µM, 7x7, partner max 10 µM) | 0.59 | 0.557 | 0.74 | 0.992 | 0.693 | 0.421 | 0.233 | 0.248 | 0.246 | 0.851 | 0.355 | 0.493 | 0.456 | 0.489 | 0.797 | 0.575 | 0.474 | 0.158 | 0.475 | 0.686 |
| CC1(C)CCC(CN2CCN(c3ccc(C(=O)NS(=O)(=O)c4ccc(NCC5CCOCC5)c([N+](=O)[O-])c4)c(Oc4cnc5[nH]ccc5c4)c3)CC2)=C(c2ccc(Cl)cc2)C1 [Venetoclax] + C[C@@H]1COCCN1C2=NC(=NC(=C2)C3(CC3)[S@](=N)(=O)C)C4=C5C=CNC5=NC=C4 [AZD6738] (first compound max 1 µM, 7x7, partner max 10 µM) | 0.678 | 0.72 | 0.888 | 1 | 0.344 | 0.603 | 0.793 | 0.642 | 0.432 | 0.909 | 0.394 | 0.575 | 0.466 | 0.728 | 0.761 | 0.67 | 0.789 | 0.934 | 0.638 | 0.796 |
| CC1(C)CCC(CN2CCN(c3ccc(C(=O)NS(=O)(=O)c4ccc(NCC5CCOCC5)c([N+](=O)[O-])c4)c(Oc4cnc5[nH]ccc5c4)c3)CC2)=C(c2ccc(Cl)cc2)C1 [Venetoclax] + C[C@@H](Nc1cc(F)cc(F)c1)c1cc(C(=O)N(C)C)cc2c(=O)cc(N3CCOCC3)oc12 [AZD8186] (first compound max 1 µM, 7x7, partner max 3 µM) | 0.391 | 0.106 | 0.263 | 0.95 | 0.285 | 0.197 | 0.211 | 0.0842 | 0.0567 | 0.734 | 0.195 | 0.247 | 0.182 | 0.184 | 0.484 | 0.462 | 0.221 | 0.406 | 0.131 | 0.369 |
| CC1(C)CCC(CN2CCN(c3ccc(C(=O)NS(=O)(=O)c4ccc(NCC5CCOCC5)c([N+](=O)[O-])c4)c(Oc4cnc5[nH]ccc5c4)c3)CC2)=C(c2ccc(Cl)cc2)C1 [Venetoclax] + Cc1cc2ncnn2cc1Nc1ncc2c(n1)n(C1CCOCC1)c(=O)n2C [AZD7648] (first compound max 1 µM, 7x7, partner max 10 µM) | 0.43 | 0.199 | 0.447 | 0.931 | 0.213 | 0.23 | 0.104 | 0.204 | 0.193 | 0.831 | 0.202 | 0.34 | 0.241 | 0.275 | 0.386 | 0.244 | 0.289 | 0.325 | 0.271 | 0.295 |
| CC1(C)CCC(CN2CCN(c3ccc(C(=O)NS(=O)(=O)c4ccc(NCC5CCOCC5)c([N+](=O)[O-])c4)c(Oc4cnc5[nH]ccc5c4)c3)CC2)=C(c2ccc(Cl)cc2)C1 [Venetoclax] + Cn1cnc2c(F)c(Nc3ccc(Br)cc3Cl)c(C(=O)NOCCO)cc21 [Selumetinib] (first compound max 1 µM, 7x7, partner max 3 µM) | 0.215 | 0.656 | 0.248 | 0.926 | 0.718 | 0.268 | 0.0348 | 0.089 | 0.163 | 0.822 | 0.352 | 0.299 | 0.142 | 0.476 | 0.332 | 0.227 | 0.035 | 0.453 | 0.136 | 0.263 |
